Test system: Soybean
Assay: Metribuzin phytotoxicity screen of soybean lines in greenhouse pots
Type: in vivo, Glycine max
Conditions: applied after planting, scored 16 days later
Excerpt: In the case of a visual metribuzin sensitivity detection system, a plant is rated for the percent of visual toxicity compared to a control plant which is sensitive to metribuzin.
Soybean seeds were planted two seeds per pot in two inch pots with clay loam soil (1.36 o.m.). Six replications were arranged in a Randomized Complete Block Design in a greenhouse. Metribuzin was applied at 560 grams active ingredient per hectare after planting. Sixteen days later plants were scored for visual phytotoxicity scored as percent injury.

CSc1nnc(C(C)(C)C)c(=O)n1N [Metribuzin, metribuzin]
Injury (%) @ 560 g ai/ha (soybean line A1036478): 0%
Injury (%) @ 560 g ai/ha (soybean line AR1111926): 20%
Injury (%) @ 560 g ai/ha (soybean line AR1112922): 0%
Injury (%) @ 560 g ai/ha (soybean line AR1210100): 15%
Injury (%) @ 560 g ai/ha (soybean line AR1210104): 45%
Injury (%) @ 560 g ai/ha (soybean line AR1210856): 9%
Injury (%) @ 560 g ai/ha (soybean line AR1210886): 0%
Injury (%) @ 560 g ai/ha (soybean line AR1211262): 0%
Injury (%) @ 560 g ai/ha (soybean line AR1211948): 44%
Injury (%) @ 560 g ai/ha (soybean line BK1011572): 23%
Injury (%) @ 560 g ai/ha (soybean line BK1211980): 17%
Injury (%) @ 560 g ai/ha (soybean line BY1210428): 54%
Injury (%) @ 560 g ai/ha (soybean line BY1211100): 49%
Injury (%) @ 560 g ai/ha (soybean line BY1212083): 0%
Injury (%) @ 560 g ai/ha (soybean line BY1212201): 3%
Injury (%) @ 560 g ai/ha (soybean line BY1212223): 0%
Injury (%) @ 560 g ai/ha (soybean line BY1213080): 0%
Injury (%) @ 560 g ai/ha (soybean line CC1210319): 0%
Injury (%) @ 560 g ai/ha (soybean line CC1211481): 12%
Injury (%) @ 560 g ai/ha (soybean line CC1211818): 0%
Injury (%) @ 560 g ai/ha (soybean line CC1212005): 35%
Injury (%) @ 560 g ai/ha (soybean line CC1215412): 0%
Injury (%) @ 560 g ai/ha (soybean line CC1215903): 0%
Injury (%) @ 560 g ai/ha (soybean line CC1215927): 45%
Injury (%) @ 560 g ai/ha (soybean line CC1217018): 0%
Injury (%) @ 560 g ai/ha (soybean line CC1217019): 0%
Injury (%) @ 560 g ai/ha (soybean line CE1210923): 0%
Injury (%) @ 560 g ai/ha (soybean line CE1210997): 0%
Injury (%) @ 560 g ai/ha (soybean line CE1211033): 37%
Injury (%) @ 560 g ai/ha (soybean line CE1211109): 0%
Injury (%) @ 560 g ai/ha (soybean line CE1211211): 14%
Injury (%) @ 560 g ai/ha (soybean line CE1211264): 28%
Injury (%) @ 560 g ai/ha (soybean line CE1211339): 0%
Injury (%) @ 560 g ai/ha (soybean line CE1211377): 0%
Injury (%) @ 560 g ai/ha (soybean line CE1211403): 0%
Injury (%) @ 560 g ai/ha (soybean line CE1211693): 0%
Injury (%) @ 560 g ai/ha (soybean line CE1212024): 0%
Injury (%) @ 560 g ai/ha (soybean line CE1213779): 38%
Injury (%) @ 560 g ai/ha (soybean line CE1214014): 47%
Injury (%) @ 560 g ai/ha (soybean line CE1214443): 0%
Injury (%) @ 560 g ai/ha (soybean line CE1214602): 0%
Injury (%) @ 560 g ai/ha (soybean line CE1214610): 47%
Injury (%) @ 560 g ai/ha (soybean line G01010146): 0%
Injury (%) @ 560 g ai/ha (soybean line GO1110272): 54%
Injury (%) @ 560 g ai/ha (soybean line GO1110602): 53%
Injury (%) @ 560 g ai/ha (soybean line LL511): 92%
Injury (%) @ 560 g ai/ha (soybean line LL513N): 2%
Injury (%) @ 560 g ai/ha (soybean line LL563N): 5%
Injury (%) @ 560 g ai/ha (soybean line LL595N): 96%
Injury (%) @ 560 g ai/ha (soybean line NE0912640): 0%
Injury (%) @ 560 g ai/ha (soybean line NE1212391): 0%
Injury (%) @ 560 g ai/ha (soybean line NE1214412): 5%
Injury (%) @ 560 g ai/ha (soybean line NE1214737): 0%
Injury (%) @ 560 g ai/ha (soybean line NE1215099): 0%
Injury (%) @ 560 g ai/ha (soybean line OW1011073): 11%
Injury (%) @ 560 g ai/ha (soybean line OW1011829): 50%
Injury (%) @ 560 g ai/ha (soybean line OW1012353): 17%
Injury (%) @ 560 g ai/ha (soybean line OW1113014): 34%
Injury (%) @ 560 g ai/ha (soybean line OW1210742): 45%
Injury (%) @ 560 g ai/ha (soybean line OW1212626): 25%
Injury (%) @ 560 g ai/ha (soybean line OW1213195): 28%
Injury (%) @ 560 g ai/ha (soybean line OW1213207): 28%
Injury (%) @ 560 g ai/ha (soybean line OW1213282): 23%
Injury (%) @ 560 g ai/ha (soybean line OW1213323): 42%
Injury (%) @ 560 g ai/ha (soybean line S77-T7): 23%
Injury (%) @ 560 g ai/ha (soybean line S78-G6): 10%
Injury (%) @ 560 g ai/ha (soybean line SJ1114205): 0%
Injury (%) @ 560 g ai/ha (soybean line SJ1210059): 0%
Injury (%) @ 560 g ai/ha (soybean line SJ1210512): 11%
Injury (%) @ 560 g ai/ha (soybean line SJ1210526): 0%
Injury (%) @ 560 g ai/ha (soybean line SJ1210678): 0%
Injury (%) @ 560 g ai/ha (soybean line SJ1210829): 0%
Injury (%) @ 560 g ai/ha (soybean line SJ1210844): 0%
Injury (%) @ 560 g ai/ha (soybean line SJ1210862): 0%
Injury (%) @ 560 g ai/ha (soybean line SJ1210867): 25%
Injury (%) @ 560 g ai/ha (soybean line SJ1211190): 55%
Injury (%) @ 560 g ai/ha (soybean line SJ1212283): 0%
Injury (%) @ 560 g ai/ha (soybean line SJ1213014): 0%
Injury (%) @ 560 g ai/ha (soybean line SJ1213512): 0%
Injury (%) @ 560 g ai/ha (soybean line SJ1213805): 48%
Injury (%) @ 560 g ai/ha (soybean line WN1116259): 0%
Injury (%) @ 560 g ai/ha (soybean line WN1118256): 47%
Injury (%) @ 560 g ai/ha (soybean line WN1118297): 0%

Reference: patent US10667478B1, “Metribuzin tolerance alleles in soybean” (Syngenta Participations AG, priority 2017, dated 2020)
